Where two headings read alike, the source gives them in different places. Ends that are not written are not given here. palmitoyl‑Lys = palmitoyl-lysine
Columns and labels:
[1] = test system: experimentally induced uveitis; set-up: method as in PMID 27703302, PMID 26094775; settings: rats, topical application as simple eye drop; cited from earlier work
induced uveitis = settings: cited from earlier work
[2] = test system: pJAK2 (1001–1013) peptide; assay: Competitive inhibition binding assay; settings: 5 µg/mL biotinylated pJAK2 pre-incubated with increasing soluble SOCS1-KIR (8-500, printed mg/mL), RT, then direct binding assay; semi-logarithmic fit R2 ≥ 0.95; n = 3
Method: Direct binding assays were performed at room temperature (RT) for 2 h as previously described[34] with modifications. Briefly, Polystyrene 96-well flat bottom plates were seeded with SOCS1 KIR peptide (500 µg/mL) in 0.05 M carbonate-bicarbonate buffer (pH 9.6). The plates were washed 4 times in the wash buffer (Phosphate-buffered saline in 0.05% Tween-20) followed by incubation for 2 h in blocking buffer (3% bovine serum albumin (BSA), 3 mM ethylenediaminetetraacetic acid (EDTA), 0.1% gelatin, and 0.05% Tween 20) and then washed 4 times. Serial dilutions of biotinylated phosphorylated JAK2 (pJAK2) in assay diluent (2% BSA, 3 mM EDTA, 0.01% gelatin, and 0.05% Tween 20) (10, 5, 2.5, 1.25, 0.625, 0.312 µg/mL) were then added to the coated plates for 90 min followed by washing 7 times. Streptavidin- horseradish peroxidase (1:4000, HRP) [BD Biosciences, Cat# 554066] was then added for 30 min followed by 12 wash cycles. Finally, 100 µL 3,3′,5,5′-Tetramethylbenzidine (TMB) substrate [BD Biosciences, Cat# 555214] was added for 30 min followed by assessment with spectrophotometer readings at an absorbance of 450 nm. For competitive Inhibition assays, 5 µg/mL biotinylated pJAK2 was pre-incubated with varying concentrations of SOCS1-KIR ([…]) for 1 h at RT prior and then, a direct binding assay was performed. […]

[3] = test system: equine recurrent uveitis (ERU); format: in vivo, horse; settings: for Response to mimetic: symbols not defined
Source text: A priori ERU patients with confirmed ERU but lacking severe ophthalmic decrements (evidence of chronicity), were optimal for enrollment in clinical trial. However, given the unmet need presented by ERU, horses with uncontrolled ERU-mediated inflammation were also enrolled (even with ophthalmic decrement), given that peptide efficacy could be assessed. Reduction in hyperemia was established as the primary endpoint evaluation of peptide efficacy. A priori power analysis established that nine patients would be required to assess a significant decrease in hyperemia, based on historical data from the institution. Ten total patients were enrolled through direct contact with Dr. Plummer. […] No exclusions were made, with all participants noted in Table 1. All procedures were conducted on equine patients subsequent to owner consent.
Ten horses (7 geldings and 3 mares) diagnosed with ERU were enrolled in a short-term, open-label trial to assess the efficacy of topical SOCS1 KIR. The administration of the SOCS1 KIR peptide was in the context of a therapeutic treatment. The horses of varied breed (appaloosa, quarter horse, miniature, and paint- aged 5–21) enrolled in the trial, presenting with acute or insidious disease, were admitted into the University of Florida Veterinary Hospital for 4–7 days to begin treatments with topical SOCS1 KIR. The horses admitted to the clinic were closely evaluated for efficacy and possible negative effects of the treatment. Examinations included intraocular pressure measurement, slit lamp biomicroscopy, and direct and indirect ophthalmoscopy as possible. 200 µg of SOCS1 KIR was administered in 100 µL topically, which was a small volume that prevented reflex tear formation and possible peptide elimination. Seven of 10 patients presented with bilateral disease for a total evaluation of 17 eyes to assess peptide efficacy (Table 1). After hospitalization, ERU patients were returned to their owners, who continued peptide administration from home. The horses underwent complete physical and ophthalmic examinations at day 0, day 3, day 14, and day 42. During the ophthalmic examinations, the horses were scored for discomfort, hyperemia, and aqueous flare using a modified MacDonald-Shadduck System[35] by both the attending veterinary ophthalmologist and four additional masked veterinary ophthalmologists. Safety outcomes at each observation period included: (i) ocular irritation scores (utilizing the modified MacDonald-Shadduck scoring system-); (ii) number of new cases of ocular infections; (iii) number of horses affected with peptide-mediated damage to the eye; (iv) intraocular pressure (mmHg); and (v) ERG b-wave amplitudes to assess retinal function.
Specific rationale is as follows: Given the novelty of the use of topical SOCS1-mimetic peptide, the administration of peptide in this pilot study was ethically conducted in open-label fashion, without randomization, so that rescue medications could be administered, if necessary. […] A single investigator (C.P.) was aware of the drug allocations and the results of clinical evaluations. However, 4 masked veterinarians were utilized to obtain the clinical scoring obtained in Fig. 4E. Given the open enrollment utilized in this pilot study and the administration of drug by patient owners at home, confounders could not be controlled. Placebo medications were not utilized, although SOCS1 mimetic peptide was provided as compassionate use as specific owners noted symptom resumption during drug dry out period (not statistically analyzed).
Experimental data are presented as mean ± standard error of the mean […]. All statistical analyses were performed using GraphPad Prism version 8 software (GraphPad Software, La Jolla, CA, USA). For the in vivo assessment of ERU recovery, paired students t tests were utilized. The data were deemed statistically significant if P ≤ 0.05. […]

[4] = test system: experimentally induced uveitis; set-up: method as in PMID 27703302, PMID 26094775; settings: mice, topical application as simple eye drop; cited from earlier work
[5] = test system: experimental autoimmune encephalomyelitis (a rodent model of multiple sclerosis); set-up: method as in PMID 21788442, PMID 21131060, PMID 33737712; settings: peritoneal administration; cited from earlier work
[6] = test system: lupus pathologies in preclinical models; settings: cited from earlier work
Source text: (§1) Many of the uveal tract destructive cytokines produced by infiltrating T lymphocytes are dependent on Jak2 for either production or signal transduction[38],[46]. […] Endogenous SOCS1 binds to the activation loop of JAK2, inhibit ...

SOCS1-/- mice = settings: cited from earlier work
Source text: as §1

[7] = biological target: T1, pJAK2 activation loop peptide (Equus caballus); assay: ELISA-type direct plate binding assay
T1 chain: LPQDKEYYKVKEP

[8] = ERU horses, topical, not reaching statistical significance

DTHFRTFRSHSDYRRI [SOCS1-KIR]
experimentally induced uveitis [1]: mitigated experimentally induced uveitis | chemokines CCL2, CCL20 and CXCL9 and chemokine receptors CCR2, CCR4, CCR6 and CXCR3 (induced uveitis; induced uveitis rodent studies): decreases | TH1- and TH17-associated cytokines and IL-10 (induced uveitis; rodent models of uveitis, topical administration to the eye): suppresses both TH1- and TH17- associated cytokines, while promoting the production of IL-10 | signal intensity of pJak2 (1001–1013) binding to plate bound SOCS1-KIR peptide [2]: semi-logarithmic decrease in the signal intensity | resolution of inflammatory processes coinciding with administration (number of horses) ([3]; ERU horses other than patient 2, 4 horses also received diclofenac and/or atropine): eight of the remaining 9 horses | reduction in clinical scoring, masked veterinary scoring of ocular photographs ([3]; ERU horses, by 6 weeks of topical treatment, four masked veterinarians, n = 8, statistically significant): 75% | patients responsive to administration as a monotherapy ([3]; ERU horses, topical): four of the ten patients | reduction in hyperemia clinical scoring ([3]; ERU horses, topical 200 µg in 100 µl twice a day, 6-week evaluation, modified MacDonald-Shadduck score, n = 14 eyes, p < 0.01, paired t test): 40% | reduction in aqueous flare ([3]; ERU horses, topical 200 µg in 100 µl twice a day, 6 weeks, modified MacDonald-Shadduck score, n = 14, p < 0.01): 50% | reduction in overall discomfort ([3]; ERU horses, topical 200 µg in 100 µl twice a day, 6 weeks, n = 8, eyes without discomfort omitted, p < 0.05): near complete reduction | hypopyon [3, 8]: consistent improvements | intraocular pressure [3, 8]: consistent improvements | patients refractory to mimetic treatment ([3]; ERU horses, the refractory patients had severe disease): 3/10 | Response to mimetic ([3]; PT1: Appaloosa gelding, 21 years, severe disease, blind OS, bilateral, plus diclofenac/atropine, 9 months): + + | Response to mimetic dryout period ([3]; PT1: severe disease, plus diclofenac/atropine): yes | Response to mimetic ([3]; Pt 3: Miniature gelding, 16 years, severe disease, bilateral, monotherapy, lost to followup): + + + | Response to mimetic ([3]; Pt 4: Paint mare, 16 years, moderate disease, plus atropine, 2 months): + + + | Response to mimetic ([3]; Pt 5: Appaloosa gelding, 17 years, mild disease, bilateral, monotherapy, 8 months): + + + | Response to mimetic dryout period ([3]; Pt 5: mild disease, monotherapy): yes | Response to mimetic ([3]; Pt 7: Appaloosa gelding, 16 years, mild, bilateral, monotherapy, 3 months): + + + | Response to mimetic dryout period ([3]; Pt 7: mild, monotherapy): yes | Response to mimetic ([3]; Pt 9: Appaloosa mare, 14 years, moderate disease, bilateral, plus diclofenac/atropine, 8 months): + + + | Response to mimetic dryout period ([3]; Pt 9: moderate disease, plus diclofenac/atropine): yes | drug related negative events, long-term use ([3]; in vivo): no observed drug related negative events | systemic immune suppression ([3]; in vivo): no observed systemic immune suppression | discomfort and inflammation when treatment was resumed (compassionate use) ([3]; owner-noted, after return of inflammation in the peptide dry-out period, four owners, not quantitated): subsequent decreases in discomfort and inflammation | clinical improvement, patient 2 ([3]; severe ERU, minimal sight in one eye, SOCS1-KIR 2 mg/ml topical, inflammation persisted, euthanised): very modest clinical improvement | experimentally induced uveitis [4]: mitigated experimentally induced uveitis | progression of experimental autoimmune encephalomyelitis [5]: inhibited progression of experimental autoimmune encephalomyelitis | lupus pathologies ([6]; peritoneal administration, preclinical models): reduced lupus pathologies | circulating memory T cells and Foxp3 high T lymphocytes ([6]; spontaneous lupus model, peritoneal injection): decreased circulating memory T cells and increased Foxp3 high T lymphocytes | perinatal lethality of SOCS1-/- mice (SOCS1-/- mice; peritoneal administration): rescued SOCS1-/- mice from perinatal lethality | circulating memory T cells and Foxp3 high T lymphocytes (SOCS1-/- mice; rodent model of SOCS1 genetic deficiency, peritoneal injection): decreased circulating memory T cells and increased Foxp3 high T lymphocytes

{palmitoyl‑Lys}-DTHFRTFRSHSDYRRI [SOCS1-KIR mimetic peptide]
Kd [7]: 1.7 µM

Source: article PMC9065145, “Open label safety and efficacy pilot to study mitigation of equine recurrent uveitis through topical suppressor of cytokine signaling-1 mimetic peptide” (Scientific Reports, 2022)
